Target: T1, human CRF receptor (Homo sapiens, UniProt P34998)
T1 construct: expressed in transfected cells; host or cells: CHO cells (membrane fraction)
T1 sequence (P34998 24-415): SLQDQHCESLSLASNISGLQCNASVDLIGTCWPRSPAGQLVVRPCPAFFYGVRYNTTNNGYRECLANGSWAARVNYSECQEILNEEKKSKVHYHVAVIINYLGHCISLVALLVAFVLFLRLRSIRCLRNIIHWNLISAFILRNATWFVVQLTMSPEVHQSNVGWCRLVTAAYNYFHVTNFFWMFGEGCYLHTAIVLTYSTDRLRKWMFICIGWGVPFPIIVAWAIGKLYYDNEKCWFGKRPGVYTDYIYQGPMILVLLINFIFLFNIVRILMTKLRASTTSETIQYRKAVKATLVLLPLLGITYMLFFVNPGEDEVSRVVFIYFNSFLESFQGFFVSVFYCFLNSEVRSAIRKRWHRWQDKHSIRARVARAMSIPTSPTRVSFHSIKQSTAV
Assay: Measurement of corticotropin-releasing factor (CRF) binding inhibitory rate; receptor binding experiment with 125I-CRF
Settings: human CRF receptor expressing CHO cellular membrane fraction, 50 pM 125I-CRF, room temperature 1 hour
Protocol: Measurement of Corticotropin-Releasing Factor (CRF) Binding Inhibitory Rate
A receptor binding experiment was carried out using a human CRF receptor expressing CHO cellular membrane fraction and sheep CRF, [^125I]-tyr^0(^125I-CRF). 100 nM of a test compound was incubated with 1 μg of human CRF receptor expressing CHO cellular membrane fraction and 50 pM of ^125I-CRF in a binding assay buffer (50 mM Tris-HCl, 5 mM EDTA, 10 mM MgCl2, 0.05% CHAPS, 0.1% BSA, 0.5 mM PMSF, […] pepstatin, 20 μg/ml leupeptin, pH 7.5). In addition, for measuring nonspecific binding (NSB), 0.1 μM unlabelled human Urocortin was incubated with 1 μg of human CRF receptor expressing CHO cellular membrane fraction and 50 pM of ^125I-CRF in a binding assay buffer. After a binding reaction was carried out at room temperature for 1 hour, the membrane was entrapped on a glass filter (UniFilter plate GF-C/Perkin Elmer) by suction filtration using a cell harvester (Perkin Elmer), and washed with ice-cooled 50 mM Tris-HCl (pH 7.5). After drying the glass filter, a liquid scintillation cocktail (Microscinti 0, Perkin Elmer) was added, and the radioactivity of ^125I-CRF remaining on a glass filter was measured using Topcount (Perkin Elmer).
(TB-SB)/(TB-NSB)×100 (SB: radioactivity when a compound is added, TB: maximum binding radioactivity, NSB: nonspecific binding radioactivity) was calculated to obtain a binding inhibitory rate under the presence of 1,000 nM or 100 nM of each test substances.

| SMILES | inhibition [%] |
| --- | --- |
| CCCN(CCC)c1nc2c(c(-c3ccc(C)cc3C)nn2C)c(=O)n1C [9 (A), 3-(2,4-Dimethylphenyl)-6-dipropylamino-1,5-dimethyl-1,5-dihydro-4H-pyrazolo[3,4-d]pyrimidin-4-one] | > 80 |
| CCCC(CCC)n1cc(C)c(=O)c2c(-c3ccc(C)cc3C)cccc21 [Example 24, 5-(2,4-Dimethylphenyl)-3-methyl-1-(1-propylbutyl)quinolin-4(1H)-one] | > 80 |
| CCCN(CCC)c1cc(C)c(=O)n2c(-c3c(C)cc(C)cc3C)cccc12 [Example 28, 1-(Dipropylamino)-6-mesityl-3-methyl-4H-quinolizin-4-one] | > 80 |
| CCCN(CCC)c1nc2c(c(-c3c(C)cc(C)cc3C)cn2C)c(=O)n1C [Example 41, 2-(Dipropylamino)-5-mesityl-3,7-dimethyl-3,7-dihydro-4H-pyrrolo[2,3-d]pyrimidin-4-one] | > 80 |
| CCC(CC)Oc1nn(C)c(=O)c2c1ccn2-c1ccc(C)cc1C [Example 96, 1-(2,4-Dimethylphenyl)-4-(1-ethylpropoxy)-6-methyl-1,6-dihydro-7H-pyrrolo[2,3-d]pyridazin-7-one] | > 80 |
| CCC(CC)n1c2cccc(-c3c(C)cc(C)cc3C)c2c(=O)n1C [Example 150, 1-(1-ethylpropyl)-4-mesityl-2-methyl-1,2-dihydro-3H-indazol-3-one] | > 80 |
